Like-named read-outs stand apart in the source and are kept apart here.
Tests used:
[1] = tested on: short-term antigen-specific T cell lines generated from PBMCs; experiment: Interferon-γ ELISpot assay on short-term T cell lines; assay type: cell-based, human; parameters: key: +: ELISPOT: Immungenicity of the peptide shown by IFN-gamma ELISPOT analysis; * Highlights data from published resources; +*: * Highlights data from published resources
[2] = tested on: short-term antigen-specific T cell lines generated from PBMCs; parameters: key: +: ELISPOT: Immungenicity of the peptide shown by IFN-gamma ELISPOT analysis; * Highlights data from published resources; +*: * Highlights data from published resources; details: marked * (published resources), cited from earlier work
[3] = tested on: peptide-specific T cell cultures; experiment: T cell phenotyping and intracellular cytokine staining (flow cytometry); assay type: cell-based, human; parameters: key: +: cytokine: Immunogenicity of the peptide shown by intracellular cytokine staining (IFN-gamma, TNF-alpha); details: IFN-gamma, TNF-alpha

Row | Substance | ELISpot ([1]; HLA restriction A03) | ELISpot ([2]; HLA restriction A11) | ELISpot ([1]; HLA restriction B15) | cytokine ([3]; HLA restriction A03) | cytokine ([3]; HLA restriction A11) | cytokine ([3]; HLA restriction B15) | ELISpot ([2]; HLA restriction B07) | ELISpot ([2]; HLA restriction B15)
1 | 34 (CVYCKQQLLR; Human papillomavirus 16) [compound 34] | + | * | – | – | – | – | – | –
2 | 43 (AVCDKCLKFY; Human papillomavirus 16) [compound 43] | + | +* | + | + | + | + | – | –
3 | 61 (RAHYNIVTF; Human papillomavirus 16) [compound 61] | – | – | + | – | – | – | +* | –
4 | 87 (LQPETTDLY; Human papillomavirus 16) [compound 87] | – | – | – | – | – | + | – | +*

Reference: US20260240975A1, “VALIDATED HPV16-DERIVED S[…]” (Deutsches Krebsforschungszentrum Stiftung des öffentlichen …, priority 2023, published 2026)
